{
  "source": "patent US20070003987A1",
  "about": "“Screening method for substance binding to merozoite surface protein-1/42” (priority 2003, published 2007)",
  "key": {"P. vivax MSP133 [1]": {"biological_target": "T1, P. vivax MSP133 (Plasmodium vivax, UniProt Q02569, A1444G/T1362K/T1451N)", "T1 sequence (Q02569 1325-1618 T1362K/A1444G/T1451N)": "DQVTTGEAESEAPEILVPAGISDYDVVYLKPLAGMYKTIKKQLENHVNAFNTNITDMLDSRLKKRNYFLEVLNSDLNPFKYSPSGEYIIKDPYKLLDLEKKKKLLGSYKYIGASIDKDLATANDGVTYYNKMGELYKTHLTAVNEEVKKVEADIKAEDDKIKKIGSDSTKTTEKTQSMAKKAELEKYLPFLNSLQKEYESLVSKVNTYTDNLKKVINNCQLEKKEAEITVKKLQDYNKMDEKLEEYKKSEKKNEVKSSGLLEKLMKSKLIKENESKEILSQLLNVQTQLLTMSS", "assay": "isothermal titration calorimetry", "type": "binding", "experimental": "P. vivax MSP133 was expressed using the P. vivax MSP142 clone, above, as a template for PCR, followed by ligation of the product into vector pET30Xa/LIC. The sequence runs from Asp 1325 to Ser 1618 (Accession number A39401) following the N-terminal purification tag. The vector was used to transform BL21(DE3)pLysS cells. For expression, a culture of the transformed cells was induced at an OD600 of 0.6-0.8 at 37° C. with 1 mM IPTG for 3 h. The cells were harvested by centrifugation and the cell pellet lysed using the Bugbuster protein extraction reagent (Novagen). The cell lysate was cleared by centrifugation and the supernatant loaded directly onto a Ni-NTA column. The column was washed with 10 volumes of 50 mM NaH2PO4, 300 mM NaCl, 10 mM imidazole, pH 8.0, then with 6 column volumes of the same buffer containing 30 mM imidazole, and finally eluted with 3 column volumes of the buffer with 250 mM imidazole. The eluted protein was then loaded directly onto a Superdex 200 (26/600) column (Amersham) equilibrated in 20 mM Tris-HCl, 250 mM NaCl, pH 8.0 and purified by gel filtration. The fractions containing MSP-133 were pooled and dialysed extensively with PBS.\nIn addition to the fluorimetry, isothermal titration calorimetry (ITC) was performed using a Microcal omega VP-ITC (MicroCal Inc., Northampton, Mass.). The proteins were dialyzed extensively against the ITC buffer (phosphate buffered saline, pH 7.4). All experiments were performed at 25° C. The cell, 1.425 ml, contained 30 μM MSP142 or MSP133 and these were titrated by injection of a total of 290 μl of 600 μM suramin. The heat of dilution of suramin into buffer was determined in control experiments. The data were fitted by least-squares methods using the evaluation software, Microcal Origin version 5.0 provided by the manufacturer. Each experiment was performed twice."}, "P. vivax MSP133 [2]": {"system": "P. vivax MSP133", "assay": "binding of suramin by fluorimetry", "experimental": "P. vivax MSP133 was expressed using the P. vivax MSP142 clone, above, as a template for PCR, followed by ligation of the product into vector pET30Xa/LIC. The sequence runs from Asp 1325 to Ser 1618 (Accession number A39401) following the N-terminal purification tag. The vector was used to transform BL21(DE3)pLysS cells. For expression, a culture of the transformed cells was induced at an OD600 of 0.6-0.8 at 37° C. with 1 mM IPTG for 3 h. The cells were harvested by centrifugation and the cell pellet lysed using the Bugbuster protein extraction reagent (Novagen). The cell lysate was cleared by centrifugation and the supernatant loaded directly onto a Ni-NTA column. […]\n(§1) The intrinsic fluorescence of suramin was used to determine its capacity to bind to the various MSP1-derived proteins. The fluorescence was measured using a Perkin Elmer LS-3B or a Spex Fluoro Max 2 fluorimeter. Suramin was excited at a wavelength of 315 or 330 nm with 2.5 nm resolution, the emission spectra were measured at wavelengths ranging from 350-450 nm. Suramin and the MSP1 proteins were diluted in 20 mM NaH2PO4, 150 mM NaCl at pH 7.2 and analysed at 10 or 20° C. […] The Kd for the suramin-MSP1 binding was determined from three independent experiments."}, "[3]": {"biological_target": "T2, MSP119 from P. falciparum (Plasmodium falciparum, UniProt P04933, S1528A)", "T2 construct": "contained the 96 amino acid MSP119 fragment, preceded by a single His residue; N-terminal leader […]; (His6 + Factor Xa site); made in house; host or cells: Pichia pastoris (vector pPIC9K)", "assay": "binding of suramin by fluorimetry", "source_text": "Plasmodium falciparum MSP119 (Swiss-Prot 04933) was expressed from a synthetic gene optimised for Pichia pastoris expression (European Patent No. EP1180120). This construct, inserted at the SnaBI site of vector pPIC9K (Invitrogen), contained the N-terminal leader sequence YHHHHHHIEGRH preceding the MSP119 sequence. A point mutation (Ser3 to Ala) was also introduced to eliminate N-glycosylation at Asn1. Following purification of MSP119 as described previously (Morgan et al, 1999 J. Mol. Biol. 289, 113-122), the N-terminal tag was cleaved with Factor Xa (New England Biolabs) and MSP119 was purified by gel filtration (Superdex 200). The fmal product contained the 96 amino acid MSP119 fragment, preceded by a single His residue.\nas §1, with “C. Titrations were performed by adding aliquots of the suramin solution to the MSP1 solution.” for “C.”"}, "MSP142": {"biological_target": "MSP142 (Plasmodium falciparum, UniProt Q8I0U8)", "assay": "P. falciparum MSP1 secondary processing assay (merozoites, Western blot)", "type": "biochemical", "set-up": "Merozoites were purified as described previously; endogenous in cells; host or cells: purified P. falciparum merozoites released from mature schizonts", "experimental": "Merozoites were purified as described previously (Blackman 1994 Methods Cell Biol. 45, 213-220) after release from mature schizonts into growth medium supplemented with 2 mM EGTA. Merozoites were harvested by centrifugation, followed by sequential passage through pre-wetted filters of 3 and 1.2 μm pore size. Merozoites were washed in Ca^2+- and Mg^2+-free PBS in the presence of protease inhibitors (leupeptin, antipain and aprotinin at 10 μg ml^−1). The merozoites were then washed and resuspended in 50 mM Tris-HCl pH 7.2, 5 mM CaCl2, 1 mM MgCl2, plus leupeptin, antipain and aprotinin at 10 μg ml^−1 (processing buffer), and divided into 18 μl aliquots. Two microlitres of either diluted compound or reaction buffer were added and the samples incubated for 1 h at 37° C. Control assays included those in which processing was prevented by immediate addition of either SDS, 1 mM PMSF or 5 mM EGTA; and those in the absence of compound or in the presence of 0.2 mM TLCK (tosyl-L-lysyl chloromethyl ketone). After 1 h the reaction was stopped, and MSP1 processing was analysed using a Western blot-based assay (Blackman 1994 Methods Cell Biol. 45, 213-220). The blots were probed with a rabbit anti-MSP133/MSP142 antibody and the bands corresponding to MSP142 and MSP133 polypeptides were visualised by enhanced chemiluminescence.\nPurified merozoites were incubated in the presence or absence of suramin or NTS and polypeptides subjected to SDS-PAGE and Western blotting."}},
  "data": [
    {"compound": "Cc1ccc(C(=O)Nc2ccc(S(=O)(=O)O)c3cc(S(=O)(=O)O)cc(S(=O)(=O)O)c23)cc1NC(=O)c1cccc(NC(=O)Nc2cccc(C(=O)Nc3cc(C(=O)Nc4ccc(S(=O)(=O)O)c5cc(S(=O)(=O)O)cc(S(=O)(=O)O)c45)ccc3C)c2)c1", "note": "[suramin]", "values": [
      {"measurement": "Kd", "setting": "P. vivax MSP133 [1]", "value": "1500 ± 500", "unit": "nM"},
      {"measurement": "binding to MSP133 weaker than to MSP142", "setting": "P. vivax MSP133 [1]; ITC", "value": 5, "unit": "fold"},
      {"measurement": "AH value", "setting": "P. vivax MSP133 [1]; ITC, 25° C.", "value": "12 ± 1", "unit": "kcal/mol"},
      {"measurement": "enhancement of intrinsic suramin fluorescence on binding", "setting": "P. vivax MSP133 [2]", "value": "large binding-induced enhancements"},
      {"measurement": "enhancement of suramin fluorescence on addition to MSP119", "setting": "[3]", "value": "No fluorescence enhancement"},
      {"measurement": "inhibition of MSP142 secondary processing", "setting": "MSP142; 200 μM, 1 h at 37° C.", "value": "absence of MSP133"},
      {"measurement": "dose dependence of inhibition of MSP142 processing (FIG. 3B)", "setting": "MSP142; 1.25-200 μM suramin", "value": "dose-dependent"}
    ]}
  ]
}
